The target in test [1] is T1, Amine oxidase [flavin-containing] A (Rattus norvegicus, UniProt P21396).
T1 sequence (P21396 whole entry): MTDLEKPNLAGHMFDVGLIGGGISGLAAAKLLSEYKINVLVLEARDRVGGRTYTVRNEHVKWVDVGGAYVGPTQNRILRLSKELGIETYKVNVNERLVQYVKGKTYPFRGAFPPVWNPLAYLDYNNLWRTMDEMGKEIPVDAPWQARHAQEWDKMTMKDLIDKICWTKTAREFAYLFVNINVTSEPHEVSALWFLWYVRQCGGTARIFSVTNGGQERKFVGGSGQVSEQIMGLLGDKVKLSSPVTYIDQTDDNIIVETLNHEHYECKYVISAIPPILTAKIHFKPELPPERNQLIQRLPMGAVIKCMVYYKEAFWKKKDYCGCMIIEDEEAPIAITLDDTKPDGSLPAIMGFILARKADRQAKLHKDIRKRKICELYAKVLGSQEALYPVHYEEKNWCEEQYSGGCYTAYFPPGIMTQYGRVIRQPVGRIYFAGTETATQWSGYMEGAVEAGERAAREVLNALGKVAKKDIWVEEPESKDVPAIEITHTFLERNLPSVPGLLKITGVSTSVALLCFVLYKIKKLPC

Test [2] concerns the target T2, Amine oxidase [flavin-containing] B (Rattus norvegicus, UniProt P19643).
T2 sequence (P19643 whole entry): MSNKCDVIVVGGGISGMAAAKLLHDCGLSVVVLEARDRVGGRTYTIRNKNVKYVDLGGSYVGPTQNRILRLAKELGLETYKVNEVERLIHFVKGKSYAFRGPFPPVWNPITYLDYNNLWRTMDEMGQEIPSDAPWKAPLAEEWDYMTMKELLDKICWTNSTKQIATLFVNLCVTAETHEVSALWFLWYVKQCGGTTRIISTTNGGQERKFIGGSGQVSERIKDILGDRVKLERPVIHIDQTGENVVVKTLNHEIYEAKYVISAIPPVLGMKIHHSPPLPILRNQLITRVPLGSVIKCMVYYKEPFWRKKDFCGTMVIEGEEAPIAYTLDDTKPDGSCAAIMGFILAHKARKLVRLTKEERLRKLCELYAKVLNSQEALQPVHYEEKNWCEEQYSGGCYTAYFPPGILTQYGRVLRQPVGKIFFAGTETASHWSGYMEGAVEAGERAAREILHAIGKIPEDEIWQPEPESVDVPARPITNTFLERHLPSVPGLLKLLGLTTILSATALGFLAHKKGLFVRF

Test [3] addresses Sodium-dependent noradrenaline transporter (Homo sapiens, UniProt P23975).
The target of test [4] is D(2) dopamine receptor (Rattus norvegicus, UniProt P61169).
In test [5] the target is Beta-2 adrenergic receptor (Homo sapiens, UniProt P07550).
In test [6] the target is D(2) dopamine receptor (Homo sapiens, UniProt P14416).
In test [7] the target is T3, Alpha-1A adrenergic receptor (Homo sapiens, UniProt P35348).
T3 sequence (P35348 whole entry): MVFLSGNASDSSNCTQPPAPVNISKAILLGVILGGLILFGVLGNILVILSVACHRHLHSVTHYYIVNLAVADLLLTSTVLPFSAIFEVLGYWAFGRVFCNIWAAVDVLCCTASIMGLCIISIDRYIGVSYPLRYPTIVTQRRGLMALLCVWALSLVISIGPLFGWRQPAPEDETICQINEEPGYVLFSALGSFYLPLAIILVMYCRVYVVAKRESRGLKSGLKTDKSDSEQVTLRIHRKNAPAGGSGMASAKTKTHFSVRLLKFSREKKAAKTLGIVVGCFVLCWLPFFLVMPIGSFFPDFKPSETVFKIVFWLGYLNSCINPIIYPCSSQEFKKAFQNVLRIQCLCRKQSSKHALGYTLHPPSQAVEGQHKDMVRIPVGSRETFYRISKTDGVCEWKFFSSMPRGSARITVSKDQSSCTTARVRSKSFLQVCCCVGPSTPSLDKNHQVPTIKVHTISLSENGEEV

Test [8] addresses T4, Alpha-2C adrenergic receptor (Homo sapiens, UniProt P18825).
T4 sequence (P18825 whole entry): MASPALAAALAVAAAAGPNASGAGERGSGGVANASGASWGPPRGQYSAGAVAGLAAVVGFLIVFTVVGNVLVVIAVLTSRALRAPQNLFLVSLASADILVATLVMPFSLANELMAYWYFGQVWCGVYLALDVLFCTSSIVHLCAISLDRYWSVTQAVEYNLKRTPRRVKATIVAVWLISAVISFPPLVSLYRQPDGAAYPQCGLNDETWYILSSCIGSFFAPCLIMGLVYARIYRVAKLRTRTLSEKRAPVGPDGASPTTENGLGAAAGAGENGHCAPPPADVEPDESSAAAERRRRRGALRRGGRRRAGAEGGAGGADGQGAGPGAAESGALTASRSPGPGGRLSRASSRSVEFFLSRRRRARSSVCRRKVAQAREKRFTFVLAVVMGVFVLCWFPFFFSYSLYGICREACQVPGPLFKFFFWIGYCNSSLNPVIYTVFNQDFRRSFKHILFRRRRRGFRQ

For test [9], the target named is T5, Alpha-1B adrenergic receptor (Homo sapiens, UniProt P35368).
T5 sequence (P35368 whole entry): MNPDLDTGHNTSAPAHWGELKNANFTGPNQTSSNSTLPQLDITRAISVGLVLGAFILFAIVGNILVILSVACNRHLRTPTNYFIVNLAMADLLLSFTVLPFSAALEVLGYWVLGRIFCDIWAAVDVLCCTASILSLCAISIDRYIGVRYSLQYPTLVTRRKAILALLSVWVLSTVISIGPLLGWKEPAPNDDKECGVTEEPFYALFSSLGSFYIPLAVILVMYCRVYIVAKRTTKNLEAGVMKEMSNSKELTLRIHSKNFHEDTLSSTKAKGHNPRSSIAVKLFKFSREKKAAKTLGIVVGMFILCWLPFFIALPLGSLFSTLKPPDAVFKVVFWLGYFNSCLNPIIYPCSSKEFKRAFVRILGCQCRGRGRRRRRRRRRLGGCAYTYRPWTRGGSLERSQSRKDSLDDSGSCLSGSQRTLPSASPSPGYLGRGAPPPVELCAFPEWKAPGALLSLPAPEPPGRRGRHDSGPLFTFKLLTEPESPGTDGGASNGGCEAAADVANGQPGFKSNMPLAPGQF

Test [10] deals with T6, Alpha-1D adrenergic receptor (Homo sapiens, UniProt P25100).
T6 sequence (P25100 whole entry): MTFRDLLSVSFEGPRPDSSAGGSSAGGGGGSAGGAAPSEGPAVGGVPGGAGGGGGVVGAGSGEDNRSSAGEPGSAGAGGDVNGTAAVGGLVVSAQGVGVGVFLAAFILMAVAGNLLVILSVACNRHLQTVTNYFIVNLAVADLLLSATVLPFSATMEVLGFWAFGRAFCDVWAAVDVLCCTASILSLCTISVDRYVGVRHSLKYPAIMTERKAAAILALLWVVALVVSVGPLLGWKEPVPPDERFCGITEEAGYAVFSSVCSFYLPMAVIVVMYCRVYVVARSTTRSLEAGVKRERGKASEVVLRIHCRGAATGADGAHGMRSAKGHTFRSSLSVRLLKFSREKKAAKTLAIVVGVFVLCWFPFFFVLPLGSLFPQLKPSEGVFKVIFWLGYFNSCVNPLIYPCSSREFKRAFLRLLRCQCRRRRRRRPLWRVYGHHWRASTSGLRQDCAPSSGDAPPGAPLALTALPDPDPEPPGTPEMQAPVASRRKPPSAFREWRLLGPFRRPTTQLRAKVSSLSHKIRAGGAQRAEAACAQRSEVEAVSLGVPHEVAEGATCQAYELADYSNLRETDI

The target of test [11] is T7, Alpha-2C adrenergic receptor (Rattus norvegicus, UniProt P22086).
T7 sequence (P22086 whole entry): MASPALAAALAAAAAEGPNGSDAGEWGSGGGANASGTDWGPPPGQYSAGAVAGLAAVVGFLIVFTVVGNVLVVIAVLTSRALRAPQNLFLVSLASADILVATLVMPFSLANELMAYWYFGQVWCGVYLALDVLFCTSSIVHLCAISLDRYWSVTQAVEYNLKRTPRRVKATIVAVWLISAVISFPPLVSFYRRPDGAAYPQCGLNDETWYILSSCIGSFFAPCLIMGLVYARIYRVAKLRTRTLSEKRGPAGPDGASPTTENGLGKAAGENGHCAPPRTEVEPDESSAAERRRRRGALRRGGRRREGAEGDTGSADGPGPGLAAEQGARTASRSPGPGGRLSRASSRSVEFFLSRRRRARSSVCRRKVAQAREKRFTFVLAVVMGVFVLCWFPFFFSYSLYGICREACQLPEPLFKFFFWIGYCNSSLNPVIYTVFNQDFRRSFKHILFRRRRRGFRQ

Test [12] deals with Norepinephrine transporter (Rattus norvegicus, UniProt Q9JIA2).
In test [13] the target is T8, Alpha-2A adrenergic receptor (Homo sapiens, UniProt P08913).
T8 sequence (P08913 whole entry): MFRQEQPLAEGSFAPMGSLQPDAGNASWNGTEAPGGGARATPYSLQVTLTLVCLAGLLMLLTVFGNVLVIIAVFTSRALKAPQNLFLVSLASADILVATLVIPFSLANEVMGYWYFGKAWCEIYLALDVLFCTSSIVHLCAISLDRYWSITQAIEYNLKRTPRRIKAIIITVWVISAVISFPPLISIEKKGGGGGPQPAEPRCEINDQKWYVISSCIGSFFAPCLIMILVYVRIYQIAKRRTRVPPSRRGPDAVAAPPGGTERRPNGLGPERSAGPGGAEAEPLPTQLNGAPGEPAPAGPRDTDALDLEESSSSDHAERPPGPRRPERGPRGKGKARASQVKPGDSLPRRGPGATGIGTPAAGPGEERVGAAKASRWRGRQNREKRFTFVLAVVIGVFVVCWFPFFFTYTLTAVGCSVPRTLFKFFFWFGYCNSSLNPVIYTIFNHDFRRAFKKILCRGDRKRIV

Sequence of Beta-2 adrenergic receptor (P07550 whole entry): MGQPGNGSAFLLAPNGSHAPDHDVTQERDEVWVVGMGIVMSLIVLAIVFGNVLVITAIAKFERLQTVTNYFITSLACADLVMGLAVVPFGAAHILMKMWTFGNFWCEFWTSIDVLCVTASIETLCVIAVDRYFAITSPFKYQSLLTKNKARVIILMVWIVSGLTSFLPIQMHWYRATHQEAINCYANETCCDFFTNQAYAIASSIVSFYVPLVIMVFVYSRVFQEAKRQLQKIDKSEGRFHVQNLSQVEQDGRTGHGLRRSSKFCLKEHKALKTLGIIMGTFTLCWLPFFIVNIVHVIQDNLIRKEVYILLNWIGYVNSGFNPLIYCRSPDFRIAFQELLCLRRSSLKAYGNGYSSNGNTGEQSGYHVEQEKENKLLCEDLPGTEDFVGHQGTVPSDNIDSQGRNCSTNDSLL
Sequence of D(2) dopamine receptor (Rattus norvegicus, UniProt P61169) (P61169 whole entry): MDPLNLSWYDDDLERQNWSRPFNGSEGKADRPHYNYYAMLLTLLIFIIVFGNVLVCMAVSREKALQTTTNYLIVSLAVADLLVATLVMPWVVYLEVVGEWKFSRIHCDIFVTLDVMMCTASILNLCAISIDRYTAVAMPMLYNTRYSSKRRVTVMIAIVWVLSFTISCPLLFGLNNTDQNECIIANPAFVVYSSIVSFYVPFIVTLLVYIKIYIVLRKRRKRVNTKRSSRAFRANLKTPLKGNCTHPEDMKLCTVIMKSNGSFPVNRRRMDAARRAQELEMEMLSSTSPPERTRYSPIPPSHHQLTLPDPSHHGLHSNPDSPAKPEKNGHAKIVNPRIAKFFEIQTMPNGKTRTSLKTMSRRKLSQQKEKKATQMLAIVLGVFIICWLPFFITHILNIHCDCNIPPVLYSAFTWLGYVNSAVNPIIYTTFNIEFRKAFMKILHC
Sequence of D(2) dopamine receptor (Homo sapiens, UniProt P14416) (P14416 whole entry): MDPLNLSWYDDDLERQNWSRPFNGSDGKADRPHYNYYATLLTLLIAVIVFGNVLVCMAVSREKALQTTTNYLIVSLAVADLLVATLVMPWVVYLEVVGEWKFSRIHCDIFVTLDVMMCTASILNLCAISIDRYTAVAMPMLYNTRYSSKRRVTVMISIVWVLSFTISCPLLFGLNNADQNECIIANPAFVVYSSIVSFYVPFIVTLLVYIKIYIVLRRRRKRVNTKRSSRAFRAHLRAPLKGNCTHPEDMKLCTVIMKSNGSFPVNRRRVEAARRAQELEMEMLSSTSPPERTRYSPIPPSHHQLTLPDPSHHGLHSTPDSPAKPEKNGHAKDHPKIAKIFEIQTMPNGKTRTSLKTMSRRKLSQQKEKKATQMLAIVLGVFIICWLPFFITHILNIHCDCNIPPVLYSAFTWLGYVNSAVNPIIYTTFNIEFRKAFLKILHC
Sequence of Sodium-dependent noradrenaline transporter (P23975 whole entry): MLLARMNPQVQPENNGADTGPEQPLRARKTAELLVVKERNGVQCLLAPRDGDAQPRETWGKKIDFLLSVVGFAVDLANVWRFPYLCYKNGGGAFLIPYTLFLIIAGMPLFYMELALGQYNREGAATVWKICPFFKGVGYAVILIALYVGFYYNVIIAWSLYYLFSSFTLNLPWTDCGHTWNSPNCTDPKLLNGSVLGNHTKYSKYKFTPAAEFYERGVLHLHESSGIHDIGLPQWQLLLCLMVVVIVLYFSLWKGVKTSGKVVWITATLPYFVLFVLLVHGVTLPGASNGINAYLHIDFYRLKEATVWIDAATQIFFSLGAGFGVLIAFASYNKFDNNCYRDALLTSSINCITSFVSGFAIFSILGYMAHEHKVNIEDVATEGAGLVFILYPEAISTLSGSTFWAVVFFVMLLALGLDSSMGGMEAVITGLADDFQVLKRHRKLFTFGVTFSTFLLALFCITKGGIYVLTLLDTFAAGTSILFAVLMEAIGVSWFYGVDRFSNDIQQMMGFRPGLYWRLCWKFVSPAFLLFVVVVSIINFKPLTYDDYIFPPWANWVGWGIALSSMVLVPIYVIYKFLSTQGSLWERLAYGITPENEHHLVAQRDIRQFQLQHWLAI

Turning to `c1cnc(N2CCN(Cc3ccc4c(c3)OCO4)CC2)nc1` [NSC_4850], the inhibition constant Ki in test [1] was greater than 10000 nM; in test [2], greater than 10000 nM; in [3] it was greater than 10000 nM; at D(2) dopamine receptor [4], 182 nM; in test [5] it was greater than 10000 nM; on D(2) dopamine receptor [6], 132 nM. The Ki is 813 nM in [7]; 69.2 nM in test [8]; 6170 nM in [9]; 219 nM in test [10]; 437 nM in test [11]; greater than 10000 nM in [12]. Further, in test [13], the affinity corresponds to a Ki of 89.1 nM.

Source of the values: BindingDB's records for PubMed 11356907 (Institut De Recherches Servier, 2001).
